The source of these data is ChEMBL document CHEMBL1122042, “Chemical synthesis and molecular pharmacology of hydroxylated 1-(1-phenylcyclohexyl-piperidine derivatives” (1982).

SMILES strings stand for the structures.

This test is filed under the species Mus musculus. As to the kind of experiment: Effective dose for inhibition of phencyclidine binding measured in mouse rotarod assay. The class given is functional. A general note: Falling from the rotarod earlier than controls is read as motor impairment.
Turning to `OC1CCCC(c2ccccc2)(N2CCCCC2)C1` (stereo unspecified), it took a dose of 49.9 mg/kg to reach the 50% effect level (ED50).

For the compound `c1ccc(C2(N3CCCCC3)CCCCC2)cc1` [PHENCYCLIDINE], the 50% effect level (ED50) was put at a dose of 4 mg/kg.

As for `OC1CCN(C2(c3ccccc3)CCCCC2)CC1`, the ED50 (as a rule, the midpoint of the dose-response relation) came to 42 mg/kg.

Take `Oc1ccccc1C1(N2CCCCC2)CCCCC1`: the ED50 was 18 mg/kg.

Regarding `Oc1ccc(C2(N3CCCCC3)CCCCC2)cc1`, the 50% effect level (ED50) was put at a dose of 28 mg/kg.

Compound `Oc1cccc(C2(N3CCCCC3)CCCCC2)c1` returned an ED50 of 2.2 mg/kg.
